From patent publication US20130261045A1, “GREEN TEA POLYPHENOL ALPHA SECRETASE ENHANCERS AND METHODS OF USE” (UNIVERSITY OF SOUTH FLORIDA, priority 2005, published 2013)

Tests used:
[1] = tested on: Aβ generation; assay: Aβ ELISA, conditioned media of APP-transfected N2a cells (Example 1); type: cell-based, murine
Experimental: Aβ1-40 and 1-42 peptides were analyzed in the conditioned media from SweAPP N2a cells (FIGS. 1A, 1C, 1D) and transgenic APPsw mouse-derived primary neuronal cells (FIG. 1B) by ELISA (n=3 for each condition).
TAPI-1, β and γ-secretase inhibitors were obtained from Calbiochem (San Diego, Calif.). Green tea extract (75% polyphenols) was obtained from the Vitamin Shoppe™ (North Bergen, N.J.).
Cultured cells were lysed in ice-cold-lysis buffer (20 mM Tris, pH 7.5, 150 mM NaCl, 1 mM EDTA, 1 mM EGTA, 1% v/v Triton X-100, 2.5 mM sodium pyropgosphate, 1 mM β-glycerolphosphate, 1 mM Na3VO4, 1 μg/mL leupeptin, 1 mM PMSF) as previously described (Tan et al., 2002). Mouse brains were isolated under sterile conditions on ice and placed in ice-cold lysis buffer. Brains were then sonicated on ice for approximately 3 min, allowed to stand for 15 min at 4° C., and centrifuged at 15,000 rpm for 15 min. Total Aβ1-42 species were detected by acid extraction of brain homogenates in 5 M guanidine buffer (ret), followed by a 1:10 dilution in lysis buffer. Soluble Aβ1-42 was directly detected in cultured cell lysates or brain homogenates prepared with lysis buffer described above by a 1:4 or 1:10 dilution, respectively. Aβ1-42 was quantified in these samples using the Aβ1-42 ELISA kit (BioSource, Camarillo, Calif.) in accordance with the manufacturer's instructions, except that standards included a 0.5 M guanidine buffer.
In order to examine the effects of green tea's components on APP cleavage processing, for a first step, N2a neuroblastoma cells overproducing Aβ were treated with each of the aforementioned components at a wide range of doses. In addition, doses of (+)-catechin hydrate (CH) and gallic acid monohydrate (GAM) were included in the first step.

[2] = tested on: TNF-a converting enzyme (TACE); assay: Western blot of TACE in APP-transfected N2a cells; type: cell-based, murine; details: in 3 to 4 hours following EGCG treatment, then rapidly cleaved through 8 hours
Experimental: Cell cultured supernatants were collected and cell lysates were prepared from these cultured cells.
Cultured cells and mouse brain were lysed in ice-cold lysis buffer described above, and an aliquot corresponding to 50 μg of total protein was electrophoretically separated using 16.5% Tris-tricine gels. Electrophoresed proteins were then transferred to PVDF membranes (Bio-Rad), washed in dH2O, and blocked for 1 hour at ambient temperature in Tris-buffered saline (TBS; Bio-Rad) containing 5% (w/v) for non-fat dry milk. After blocking, membranes were hybridized for 1 hour at ambient temperature with various antibodies, including against the C- (369), N-terminus of APP (22C11), the N-terminus of Aβ (6E10), and ADAM10 and TACE (Calbiochem). […] Densitometric analysis was done using the Fluor-S Multimager™ with Quantity One™ software (Bio-Rad). […] Antibodies used for Western blot included antibody 369 (1:1,000), anti-C-terminal APP antibody (1:500; Chemicon, Temecula, Calif.), BAM-10 (1:1,000; Sigma), 6E10 (1:1,000; Signet) or anti-Actin antibody (1:1,500; as an internal reference control; Roche). α-, β- and γ-secretase activities were quantified in cell lysates and mouse brain homogenates using available kits based on secretase-specific peptides conjugated to fluorogenic receptor molecules (R&D Systems, Minneapolis, Minn.).

[3] = tested on: transgenic APPsw mice; assay: EGCG ICV injection of transgenic APPsw mice (cerebral Aβ, α-secretase activity); type: in vivo; details: ICV 10 μg/mouse once; 24 hours
Experimental: Cultured cells and mouse brain were lysed in ice-cold lysis buffer described above, and an aliquot corresponding to 50 μg of total protein was electrophoretically separated using 16.5% Tris-tricine gels. Electrophoresed proteins were then transferred to PVDF membranes (Bio-Rad), washed in dH2O, and blocked for 1 hour at ambient temperature in Tris-buffered saline (TBS; Bio-Rad) containing 5% (w/v) for non-fat dry milk. […] Densitometric analysis was done using the Fluor-S Multimager™ with Quantity One™ software (Bio-Rad). […] Antibodies used for Western blot included antibody 369 (1:1,000), anti-C-terminal APP antibody (1:500; Chemicon, Temecula, Calif.), BAM-10 (1:1,000; Sigma), 6E10 (1:1,000; Signet) or anti-Actin antibody (1:1,500; as an internal reference control; Roche). α-, β- and γ-secretase activities were quantified in cell lysates and mouse brain homogenates using available kits based on secretase-specific peptides conjugated to fluorogenic receptor molecules (R&D Systems, Minneapolis, Minn.). […]

[4] = tested on: TNF-α; assay: TNF-α levels in cultured medium of microglial cells; type: cell-based; details: EGCG treatment, data not shown
Description: It has been shown that TACE is critically involved in TNF-α maturation associated with pro-inflammatory responses (Moro, M. A. et al., 2003).

[5] = tested on: ADAM10; assay: Western blot of ADAM10 maturation in SweAPP N2a cells; type: cell-based, murine
Experimental: (§1) Cultured cells were lysed in ice-cold lysis buffer described above, and an aliquot corresponding to 50 μg of total protein was electrophoretically separated using 16.5% Tris-tricine gels. Electrophoresed proteins were then transferred to PVDF membranes (Bio-Rad, Richmond, Calif.), washed in ddH2O, and blocked for 1 h at ambient temperature in Tris-buffered saline (TBS; Bio-Rad) containing 5% (w/v) non-fat dry milk. After blocking, membranes were hybridized for 1 h at ambient temperature with various primary antibodies. Membranes were then washed 3 times for 5 min each in ddH2O and incubated for 1 h at ambient temperature with the appropriate HRP-conjugated secondary antibody (1:1,000, Pierce Biotechnology, Inc. Rockford, Ill.). All antibodies were diluted in TBS containing 5% (w/v) of non-fat dry milk. Blots were developed using the luminol reagent (Pierce Biotechnology). Densitometric analysis was done using the Fluor-S MultiImager™ with Quantity One™ software (Bio-Rad). For examining sAPP-α, conditioned medium was collected following treatment according to a modified protocol from Chen and Fernandez (Chen et al., 2004). sAPP-α was extracted using 3K Nanosep centrifugal filters (Pall Life Sciences, Ann Arbor, Mich.) and protein concentrate was prepared for the aforementioned electrophoresis. […]

[6] = tested on: ADAM9; assay: Western blot of ADAM9 in SweAPP N2a cells; type: cell-based, murine; details: EGCG treatment; data not shown
Experimental: as §1

[7] = tested on: ADAM10 mRNA; assay: RT-PCR of ADAM10 mRNA in SweAPP N2a cells; type: cell-based, murine; details: various doses of EGCG, 8 h
Experimental: Analysis of murine ADAM10 was conducted according to previously published methods (Ehrhart et al., 2005; Park et al., 2001). Briefly, total RNA was isolated from SweAPP N2a cells and subjected to reverse transcription utilizing a commercially available kit (cDNA Cycle® kit; Invitrogen, Carlsbad, Calif.) according to the manufacturer's instructions on a Bio-Rad iCycler thermocycler. […] Thermocycler conditions consisted of an initial denaturing step at 95° C. for 15 min, followed by 35 cycles of 94° C. for 30 s, 50° C. for 1 min, and 72° C. for 1 min at, and a final extension step at 72° C. for 10 min. Resolution and analysis of PCR products (murine ADAM10: 881 bp, murine γ-actin: 357 bp) band densities was conducted by ethidium bromide-stained agarose gel electrophoresis and identified using UV transillumination by comparisons with molecular weight markers (Invitrogen). Samples that were not subjected to reverse transcription were run in parallel as negative controls to rule out DNA contamination as a template for PCR products (data not shown). A “no template control” was also included for each primer set as a further negative control (data not shown). Amplification of γ-actin was used to normalize for input cDNA.

[8] = tested on: ADAM10; assay: Western blot of ADAM10 maturation in N9 microglial cells; type: cell-based; details: various doses, 8 h
Experimental: Cultured cells were lysed in ice-cold lysis buffer described above, and an aliquot corresponding to 50 μg of total protein was electrophoretically separated using 16.5% Tris-tricine gels. Electrophoresed proteins were then transferred to PVDF membranes (Bio-Rad, Richmond, Calif.), washed in ddH2O, and blocked for 1 h at ambient temperature in Tris-buffered saline (TBS; Bio-Rad) containing 5% (w/v) non-fat dry milk. After blocking, membranes were hybridized for 1 h at ambient temperature with various primary antibodies. Membranes were then washed 3 times for 5 min each in ddH2O and incubated for 1 h at ambient temperature with the appropriate HRP-conjugated secondary antibody (1:1,000, Pierce Biotechnology, Inc. Rockford, Ill.). All antibodies were diluted in TBS containing 5% (w/v) of non-fat dry milk. Blots were developed using the luminol reagent (Pierce Biotechnology). Densitometric analysis was done using the Fluor-S MultiImager™ with Quantity One™ software (Bio-Rad). […] Antibodies used for Western blot included: antibody 369 (which recognizes the carboxyl-terminus of APP; 1:1,500), clone 22C11 (against the amino-terminus of APP; 1:1,500), clone 6E10 (against amino acids 1-17 of Aβ; 1:1,500), anti-ADAM9 (1:500), and antibodies against ADAM10 (1:500), ADAM17 (1:500) or actin (1:1,500; as an internal reference control).

[9] = tested on: ADAM10; assay: Western blot of ADAM10 maturation in primary murine neuronal cultures; type: cell-based; details: various doses, 8 h
Experimental: (§2) Cultured cells were lysed in ice-cold lysis buffer described above, and an aliquot corresponding to 50 μg of total protein was electrophoretically separated using 16.5% Tris-tricine gels. Electrophoresed proteins were then transferred to PVDF membranes (Bio-Rad, Richmond, Calif.), washed in ddH2O, and blocked for 1 h at ambient temperature in Tris-buffered saline (TBS; Bio-Rad) containing 5% (w/v) non-fat dry milk. After blocking, membranes were hybridized for 1 h at ambient temperature with various primary antibodies. Membranes were then washed 3 times for 5 min each in ddH2O and incubated for 1 h at ambient temperature with the appropriate HRP-conjugated secondary antibody (1:1,000, Pierce Biotechnology, Inc. Rockford, Ill.). All antibodies were diluted in TBS containing 5% (w/v) of non-fat dry milk. Blots were developed using the luminol reagent (Pierce Biotechnology). Densitometric analysis was done using the Fluor-S MultiImager™ with Quantity One™ software (Bio-Rad). […] Antibodies used for Western blot included: antibody 369 (which recognizes the carboxyl-terminus of APP; 1:1,500), clone 22C11 (against the amino-terminus of APP; 1:1,500), clone 6E10 (against amino acids 1-17 of Aβ; 1:1,500), anti-ADAM9 (1:500), and antibodies against ADAM10 (1:500), ADAM17 (1:500) or actin (1:1,500; as an internal reference control). […]

[10] = tested on: ADAM10; assay: Western blot of ADAM10 maturation in primary murine microglial cultures; type: cell-based; details: various doses, 8 h
Experimental: as §2

[11] = tested on: Aβ1-40 and Aβ1-42; assay: Aβ1-40/Aβ1-42 ELISA, Tg2576 mouse-derived primary neuronal cells; type: cell-based; details: Tg2576 primary neurons; various doses, 8 h

## O=C(O[C@@H]1Cc2c(O)cc(O)cc2O[C@@H]1c1cc(O)c(O)c(O)c1)c1cc(O)c(O)c(O)c1 [EGCG, (−)-epigallocatechin-3-gallate]
[1]; 20 μM, human APP695-transfected N2a cells, FIG. 1A
  reduction of Aβ1-42 generation over control (PBS): 60%
[1]; SweAPP N2a cells, equivalent doses, FIG. 1D
  ability to inhibit Aβ generation, purified EGCG versus same amounts EGCG present in GT mixtures: much greater
[2]
  TACE expression: significantly increased
[3]
  elevation of α-secretase cleavage activity in brain: 32%
  reduction of cerebral soluble Aβ levels: 39%
  α-secretase cleavage activity in brain (mean ± s.e.m.): 890.29±104.41 fluorescence units/mg of total protein
[4]
  TNF-α levels in cultured medium: no associated elevation
[5]; 20 μM, as early as 30 min, continued to increase through 120 min
  mature ADAM10, temporal analysis: significant increases
[5]; various doses of EGCG, 8 h
  mature ADAM10 (~60 kDa isoform) protein level: dose-dependently increased
[6]
  ADAM9 expression: no significant effects
[7]
  ADAM10 mRNA levels: no significant between-EGCG dose differences
[8]
  ADAM10 maturation: dose-dependently increased
[9]
  mature ADAM10: dose-dependent increases
[10]
  mature ADAM10: dose-dependent increases
[11]
  Aβ1-40 levels: dose-dependent reductions
  Aβ1-42 levels: dose-dependent reductions
